Consider 1 compound from US5292892A, “Anti-bacterial compound and pharmaceutical compositions thereof” (Sankyo Company, Limited, priority 1991, dated 1994).

For data set [1], the system named is Mycoplasma bovis Donetta. Nature of the data set: Antimycoplasmal activity (MIC). It is filed as cell-based. Conditions: Mycoplasmopsis bovis, 120 h; Chanock medium, 20% horse serum; 37° C., 5 days, slightly aerobic; 0.005 ml of 10^5 CFU/ml.
Data set [2] deals with Mycoplasma gallisepticum K-1. Briefly: Antimycoplasmal activity (MIC). In kind it is cell-based. Conditions: Mycoplasmoides gallisepticum, K1, 120 h; Chanock medium, 20% horse serum; 37° C., 5 days, slightly aerobic; 0.005 ml of 10^5 CFU/ml.
Data set [3] deals with Mycoplasma hyosynoviae S-16. Nature of the data set: Antimycoplasmal activity (MIC). In kind it is cell-based. Conditions: S16, 120 h, Mucin PPLO agar medium, 15% horse serum, 37° C., 5 days, slightly aerobic, 0.005 ml of 10^5 CFU/ml. On the procedure:
(§1) Following the procedure as described below, the activity of thiomarinol was assayed against various species of mycoplasma.
M. hyosynoviae Mucin PPLO* agar medium (15%
horse serum supplemented)
(§2) 37° C., 5 days, slightly aerobic
(§3) (BBL gas pack method [cultivation
(§4) in disposable CO2 generator from
(§5) Becton Dickinson Microbiology
(§6) Systems, Cockeysville, MD 2103
*PPLO ( -- Pleuro -- Pneumonia- -- Like
PPLO Broth without CV (Difco)
Mucin bacteriological (Difco)
Agar Noble (Difco) 12 g
25% Fresh yeast extract 50 ml

The nature of data set [4]: Solubility. It is filed as physicochemical.
Data set [5] has as its system Mycoplasma gallisepticum PG-31. Nature of the data set: Antimycoplasmal activity (MIC). It is filed as cell-based. Conditions: Mycoplasmoides gallisepticum, PG31, 120 h; Chanock medium, 20% horse serum; 37° C., 5 days, slightly aerobic; 0.005 ml of 10^5 CFU/ml.
Data set [6] relates to Mycoplasma gallisepticum S-6. Nature of the data set: Antimycoplasmal activity (MIC). It is filed as cell-based. Conditions: Mycoplasmoides gallisepticum, S6, 120 h; Chanock medium, 20% horse serum; 37° C., 5 days, slightly aerobic; 0.005 ml of 10^5 CFU/ml.
The test system of data set [7] is Mycoplasma synoviae WVU1853. Briefly: Antimycoplasmal activity (MIC). It is filed as cell-based. Conditions: Mycoplasmopsis synoviae, WVU1853, 120 h; Frey medium, 12% swine serum; 37° C., 5 days, slightly aerobic; 0.005 ml of 10^5 CFU/ml. On the procedure: as §1
M. synoviae Frey medium [prepared as de-
scribed in Am. J. Vet. Res., --29,
as §2, §3, §4, §5, §6

For data set [8], the system named is Pseudomonas aeruginosa N07. Nature of the data set: MIC, agar medium dilution method. In kind it is cell-based. Conditions: nutrient agar. On the procedure:
(§7) The minimum inhibitory concentration (MIC) of thiomarinol, given as μg/ml, against gram-positive and gram-negative bacteria was determined by the agar medium dilution method, using a nutrient agar medium (Product of Eiken Chemical Co., Ltd.).

For data set [9], the system named is Enterobacter cloacae 963. Nature of the data set: MIC, agar medium dilution method. It is filed as cell-based. Conditions: nutrient agar. On the procedure: as §7
The subject of data set [10] is Staphylococcus aureus 209P. Nature of the data set: MIC, agar medium dilution method. In kind it is cell-based. Conditions: nutrient agar. On the procedure: as §7
Data set [11] deals with Pseudomonas aeruginosa 1001. Briefly: MIC, agar medium dilution method. Conditions: nutrient agar. In kind it is cell-based. On the procedure:
as §7

Data set [12] has as its system Klebsiella pneumoniae 806. Briefly: MIC, agar medium dilution method. In kind it is cell-based. Conditions: nutrient agar. On the procedure:
as §7

The subject of data set [13] is Escherichia coli 609. Nature of the data set: MIC, agar medium dilution method. Conditions: nutrient agar. It is filed as cell-based. Here is the method: as §7
For data set [14], the system named is Proteus vulgaris 1420. Nature of the data set: MIC, agar medium dilution method. Conditions: nutrient agar. In kind it is cell-based. Here is the method: as §7
Data set [15] concerns Klebsiella pneumoniae 846 (R). Nature of the data set: MIC, agar medium dilution method. In kind it is cell-based. Conditions: nutrient agar, (R) strain. Here is the method: as §7
The test system of data set [16] is Morganella morganii 1510. Briefly: MIC, agar medium dilution method. Conditions: nutrient agar. It is filed as cell-based. Here is the method:
as §7

For data set [17], the system named is Salmonella enteritidis. Nature of the data set: MIC, agar medium dilution method. Conditions: Salmonella enterica, nutrient agar. It is filed as cell-based. Here is the method: as §7
The test system of data set [18] is Serratia marcescens 1184. Briefly: MIC, agar medium dilution method. In kind it is cell-based. Conditions: nutrient agar. Here is the method: as §7
Data set [19] deals with Staphylococcus aureus 535 (MRSA). Briefly: MIC, agar medium dilution method. In kind it is cell-based. Conditions: nutrient agar. On the procedure:
as §7

In data set [20] the test system is Escherichia coli NHIJ. Briefly: MIC, agar medium dilution method. Conditions: nutrient agar. In kind it is cell-based. Here is the method:
as §7

Data set [21] relates to Staphylococcus aureus 56R. Nature of the data set: MIC, agar medium dilution method. It is filed as cell-based. Conditions: nutrient agar. On the procedure: as §7
Data set [22] deals with Enterococcus faecalis 681. Briefly: MIC, agar medium dilution method. It is filed as cell-based. Conditions: nutrient agar. On the procedure: as §7

≈ marks a conversion by molar mass, not a printed value.

As usually defined, the MIC is the lowest concentration found to suppress growth. Read a low MIC as a more susceptible organism. Regarding `C/C(=C\C(=O)OCCCCCCCC(=O)Nc1c2sscc-2[nH]c1=O)C(O)C1OCC(C/C=C/C(C)C(C)O)C(O)C1O` (single isomer, unassigned) [thiomarinol], the MIC in data set [1] was 0.0125 µg/mL (≈ 0.0195 µM); in data set [2] it was 0.05 µg/mL (≈ 0.078 µM); in data set [3] it was 0.025 µg/mL (≈ 0.039 µM); in data set [5], 0.05 µg/mL (≈ 0.078 µM); in [6], 0.1 µg/mL (≈ 0.156 µM); in data set [7], less than 0.006 µg/mL. Besides, the MIC in data set [8] was 0.4 µg/mL (≈ 0.624 µM); in data set [9], 1.5 µg/mL (≈ 2.34 µM); in data set [10] it was not above 0.01 µg/mL; in data set [11], 0.2 µg/mL (≈ 0.312 µM); in [12], 0.8 µg/mL (≈ 1.25 µM); in data set [13], 0.8 µg/mL (≈ 1.25 µM). Besides, the minimum inhibitory concentration (MIC) in data set [14] is 0.05 µg/mL (≈ 0.078 µM); in [15], 0.2 µg/mL (≈ 0.312 µM); in data set [16] it was 6.2 µg/mL (≈ 9.68 µM); in data set [17], 0.4 µg/mL (≈ 0.624 µM); in data set [18], 3.1 µg/mL (≈ 4.84 µM); in data set [19], not above 0.01 µg/mL. Besides, the minimum inhibitory concentration (MIC) was 0.8 µg/mL (≈ 1.25 µM) in data set [20], not above 0.01 µg/mL in data set [21] and 0.02 µg/mL (≈ 0.0312 µM) in data set [22]. Besides, the Solubility result in data set [4] (alcohols (methanol, ethanol, propanol, butanol), dimethyl sulfoxide, dimethylformamide, chloroform, ethyl acetate, acetone, ethyl ether) is reported as “Soluble”; in data set [4] (hexane), “insoluble”; in [4] (water), “insoluble”.
